# Measured values: patent US20120277286A1, “COMPOSITIONS AND METHODS FOR THE TREATMENT OR PREVENTION OF MITOCHONDRIAL DISEASES” (The Government of the USA, as represented by the Secretary, …, priority 2009, published 2012)
# Tests used:
# Type in all cases: cell-based
# HeLa cells [1] = assay: Parkin colocalization with mitochondria scored by confocal microscopy; conditions: HeLa cells, 2 mM paraquat, 24 hours
# Summary of the method: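 Transfected HeLa cells fixed 12–24 h post-transfection in 4% paraformaldehyde. Cells immunostained for mitochondrial markers and imaged by confocal microscopy. Parkin recruitment to mitochondria assessed by line-scan colocalization.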
# HeLa cells [2] = assay: PINK1-YFP imaging and colocalization in HeLa cells; conditions: 2 mM paraquat, 16 hours
# Description: (§1) Confocal microscopy of fixed samples, scoring of Parkin recruitment and Parkininduced mitophagy, and live cell imaging were performed as described previously (Narendra (2008) J Cell Biol 183: 795-803). Experiments in Mfn1/2 null cells were performed as described previously with minor modifications.
# as §1, with “Parkin-induced” for “Parkininduced”, “imageing” for “imaging”, “modifications described in the supplemental methods (Narendra (2008) J Cell Biol 183: 795-803).” for “modifications.”
# HeLa cells [3] = assay: Regulated FRB/FKBP heterodimerization of PINK1 to outer mitochondrial membrane
# From the text: In the presence of the rapamycin derivative AP21967, the FRB domain and the FKBP domain heterodimerize, but only if they are in the same compartment. Thus, FRB-PINK1Δ1-110-YFP should be recruited from the cytosol to mitochondria if the FKBP domain of TOM20-FKBP faces the cytosol but not if it faces the inner membrane space or the matrix. […] To assess whether PINK1 expression on the outer mitochondrial membrane is sufficient to recruit Parkin, mCherry-Parkin, FRB-PINK1Δ1-110-YFP, and TOM20-FKBP were co-transfected. In the absence of AP21967, mCherry-Parkin was in the cytosol, but following incubation AP21967 mCherry-Parkin was recruited to mitochondria in 96.7±4.1% of cells, in the absence of CCCP (FIG. 14F and FIG. 15D).
# HeLa YFP-Parkin, E18 Rat cortical neurons, PINK1^+/+ SV40 transformed MEFs cells, PINK1^−/− SV40 transformed MEF, M17 neuroblastoma control shRNA, M17 neuroblastoma PINK1, Mfn1/2^−/− MEF, and Parl^−/− MEF cell lines have been described previously (Narendra (2008) J Cell Biol 183: 795-803). PINK1^+/+ and PINK1^−/− primary MEFs were isolated from embryos using a standard protocol (Gautier (2008) Proc Natl Acad Sci USA 105: 11364-11369). […]
# [4] = tested on: HeLa cells stably expressing GFP-LC3; assay: Mitochondria encapsulated by LC3-positive autophagosomes; conditions: 10 μM CCCP, 1 hour
# Description: Previous studies in mammalian cells have concluded that depolarized mitochondria are degraded by autophagy. To test whether Parkin may be regulating this process, colocalization was assessed between a marker of autophagosomes, LC3, and mitochondria after mitochondrial depolarization using HeLa cells stably transfected with GFP-LC3 (Bampton et al., 2005). Little colocalization between mitochondria and autophagosomes was seen after 1 hours of CCCP exposure in untransfected HeLa cells (FIG. 5A, left). […] Consistent with the conclusion that Parkin accumulates on mitochondria destined for autophagy, Parkin colocalized with LC3 after CCCP treatment (FIG. 5C) but not before.
# HeLa cells stably expressing YFP-Parkin using the Flp-In system (Invitrogen) were creating according to the manufacturer's instructions and maintained in 300 μg/ml hygromycin (Sigma-Aldrich). Rat cortical neurons were isolated on embryonic day 18 and grown in neurobasal media supplemented with B-27, L-glutamine, and penicillin/streptomycin. All cell culture materials were obtained from Invitrogen and all chemicals were obtained from Sigma-Aldrich. Chemicals were prepared from DMSO stock solutions, except paraquat, N-acetyl-cysteine, and 3-methyladenine, which were added fresh to media. Mfn1−/−, Mfn2−/− and Mfn1−/−, Mfn2−/− double knockout MEFs were generously donated by D. C. […]
# PINK1 = PINK1 cleavage pattern by immunoblotting (Examples 4 and 5); conditions: HeLa, absence of MG132 treatment
# Description: PARL siRNA (5′-[…]-C′) were synthesized by Qiagen. In order to achieve efficient knockdown of PARL, cells were transfected twice over a period of 96 hrs. PINK1-V5/His was a gift from M. Cookson (National Institute of Health, Bethesda, Md.). For site-directed mutagenesis, primers were designed using Primer X, web-based mutagenic primer design program (http://www.bioinformatics.org/primerx/), and produced by Operon. 15 rounds of PCR reactions were performed using Phusion DNA polymerase (Finnzymes) and WT PINK1-YFP constructs as a template. Introduction of point mutations were confirmed by sequencing.
# (§2) Cells were cultured in borosilicated chamber slides for imaging, 6-well plates for whole cell lysates, and 100 or 150 mm culture dish for subcellular fractionation. One day after seeding, cells were transfected with indicated constructs using Fugene HD (Roche) or Lipofectamine 2000 (Invitrogen) according to the manufacturer's guidelines.
# For whole cell lysates, cells were washed twice with cold-PBS and then directly lysed with 1× sample buffer. For mitochondrial fraction, cells were fractionated as described previously (Narendra et al., 2008) and below, and then mitochondrial pellets were lysed with 1× sample buffer. 20 μg of proteins were separated on 4-12% Tris-glycine or Bis-Tris SDS-PAGE. The following antibodies were used: anti-PINK1 (Novus Biologicals), anti-PARL N-terminal (a gift from L. Pellegrini), anti-Tom20 (Santa Cruz Biotechnology, Inc.), anti-AIF (Sigma-Aldrich) and antiHtra2/Omi (R&D systems) polyclonal antibodies; anti-VDAC (Calbiochem), anti-Tubulin, anti-βactin (Sigma-Aldrich), anti-Hsp70 (Cell Signaling Technologies), anti-Tom20 (BD), anti-Tim23 and anti-cytochrome C (BD) monoclonal antibodies.
# HeLa cells [5] = assay: Mitochondrial translocation of Parkin by imaging (Examples 4 and 5); conditions: HeLa cells or PINK1 KO cells, without CCCP
# Description: as §2
# For immunocytochemistry, cultured cells in borosilicated chamber slides were fixed with 4% paraformaldehyde in PBS (USB) and permeabilized with the indicated detergent. After 30 min blocking with 10% BSA in PBS, cells were stained with the following primary antibodies: antiTom20 polyclonal antibody (Santa Cruz Biotechnology, Inc.) and anti-cytochrome C monoclonal antibody (BD), or anti-Tom20 monoclonal antibody (BD) and anti-GFP polyclonal antibody (Invitrogen) and then with the following secondary antibodies: goat anti-mouse/rabbit IgG antibody conjugated with Alexa Fluor 594/647, respectively. In case of live cell imaging, cells were pulsed with 600 nM TMRE for 5 min to evaluate mitochondrial membrane potential or 10 nM Mitotracker Red for 30 min to see the mitochondrial morphology. Cells were imaged using an inverted microscope (LSM510 Meta; Carl Zeiss) with 63×/1.4 oil DIC Plan Apo objective. Image contrast and brightness were adjusted in LSM image browser (Carl Zeiss).
molecule,measurement,setting,value
"C[n+]1ccc(-c2cc[n+](C)cc2)cc1 [paraquat, reference compound]",YFP-Parkin recruitment to mitochondria,HeLa cells [1],recruited to depolarized mitochondria
same,YFP-Parkin recruitment to mitochondria,HeLa cells [1]; listed as Paraquat,triggers Parkin recruitment to mitochondria
same,average pearson coefficient PINK1-YFP / MTR,HeLa cells [2],0.26±0.13
same,average pearson coefficient PINK1-YFP / cytochrome c,HeLa cells [2],0.58±0.11
CO[C@H]1[C@@H](O)[C@H](C)C[C@H](C)/C=C/C=C/C=C(\C)[C@@H](c2c[nH]c3c(C)cccc23)C[C@@H]2CC[C@@H](C)[C@@](O)(O2)C(=O)C(=O)N2CCCC[C@H]2C(=O)O[C@H]([C@H](C)C[C@@H]2CC[C@@H](O)[C@H](OC)C2)C[C@H](O)[C@H](C)/C=C(\C)[C@H]1O [AP21967],cells with mCherry-Parkin recruited to mitochondria,"HeLa cells [3]; HeLa with FRB-PINK1Δ1-110-YFP, TOM20-FKBP, mCherry-Parkin, 250 nM AP21967, 8 hours, absence of CCCP",96.7±4.1%
same,recruitment of FRB-PINK1Δ1-110-YFP to the outer mitochondrial membrane,"HeLa cells [3]; HeLa, 250 nM AP21967",quickly recruited
"mCherry-Parkin: mCherry-tagged Parkin expressed from a transfected vector (protein, UniProt O60260 1-465, looked up, mCherry fusion, mCherry-tagged Parkin expressed from a transfected vector) E3 ubiquitin-protein ligase …: MIVFVRFNSSHGFPVEVDSDTSIFQLKEVVAKRQGVPADQLRVIFAGKELRNDWTVQNCDLDQQSIVHIVQRPWRKGQEMNATGGDDPRNAAGGCEREPQSLTRVDLSSSVLPGDSVGLAVILHTDSRKDSPPAGSPAGRSIYNSFYVYCKGPCQRVQPGKLRVQCSTCRQATLTLTQGPSCWDDVLIPNRMSGECQSPHCPGTSAEFFFKCGAHPTSDKETSVALHLIATNSRNITCITCTDVRSPVLVFQCNSRHVICLDCFHLYCVTRLNDRQFVHDPQLGYSLPCVAGCPNSLIKELHHFRILGEEQYNRYQQYGAEECVLQMGGVLCPRPGCGAGLLPEPDQRKVTCEGGNGLGCGFAFCRECKEAYHEGECSAVFEASGTTTQAYRVDERAAEQARWEAASKETIKKTTKPCPRCHVPVEKNGGCMHMKCPQPQCRLEWCWNCGCEWNRVCMGDHWFDV",LC3 encompassed mitochondria per cell,[4],10.55±6.06
"G105W: PINK1-YFP transmembrane domain point mutant (protein, UniProt Q9BXM7 78-581, looked up, variant G105W, C-terminal YFP fusion, PINK1-YFP transmembrane domain point mutant) Serine/threonine-protein …: AARLQRQFVVRAWGCAGPCGRAVFLAFWLGLGLIEEKQAESRRAVSACQEIQAIFTQKSKPGPDPLDTRRLQGFRLEEYLIGQSIGKGCSAAVYEATMPTLPQNLEVTKSTGLLPGRGPGTSAPGEGQERAPGAPAFPLAIKMMWNISAGSSSEAILNTMSQELVPASRVALAGEYGAVTYRKSKRGPKQLAPHPNIIRVLRAFTSSVPLLPGALVDYPDVLPSRLHPEGLGHGRTLFLVMKNYPCTLRQYLCVNTPSPRLAAMMLLQLLEGVDHLVQQGIAHRDLKSDNILVELDPDGCPWLVIADFGCCLADESIGLQLPFSSWYVDRGGNGCLMAPEVSTARPGPRAVIDYSKADAWAVGAIAYEIFGLVNPFYGQGKAHLESRSYQEAQLPALPESVPPDVRQLVRALLQREASKRPSARVAANVLHLSLWGEHILALKNLKLDKMVGWLLQQSAATLLANRLTEKCCVETKMKMLFLANLECETLCQAALLLCSWRAAL",52 kDa fragment of PINK1,PINK1,stabilize the 52 kDa fragment
same,mitochondrial translocation of Parkin induced by PINK1 mutant,HeLa cells [5],did not recruit Parkin
